The text below walks through data of US11845730B2, “1,3-substituted cyclobutyl derivatives and uses thereof” (Novartis AG, priority 2021, dated 2023).

Each structure is given as a SMILES string. Structures can show the parent of a compound that is named as a salt.

human TRPV1, sequence (Q8NER1 whole entry): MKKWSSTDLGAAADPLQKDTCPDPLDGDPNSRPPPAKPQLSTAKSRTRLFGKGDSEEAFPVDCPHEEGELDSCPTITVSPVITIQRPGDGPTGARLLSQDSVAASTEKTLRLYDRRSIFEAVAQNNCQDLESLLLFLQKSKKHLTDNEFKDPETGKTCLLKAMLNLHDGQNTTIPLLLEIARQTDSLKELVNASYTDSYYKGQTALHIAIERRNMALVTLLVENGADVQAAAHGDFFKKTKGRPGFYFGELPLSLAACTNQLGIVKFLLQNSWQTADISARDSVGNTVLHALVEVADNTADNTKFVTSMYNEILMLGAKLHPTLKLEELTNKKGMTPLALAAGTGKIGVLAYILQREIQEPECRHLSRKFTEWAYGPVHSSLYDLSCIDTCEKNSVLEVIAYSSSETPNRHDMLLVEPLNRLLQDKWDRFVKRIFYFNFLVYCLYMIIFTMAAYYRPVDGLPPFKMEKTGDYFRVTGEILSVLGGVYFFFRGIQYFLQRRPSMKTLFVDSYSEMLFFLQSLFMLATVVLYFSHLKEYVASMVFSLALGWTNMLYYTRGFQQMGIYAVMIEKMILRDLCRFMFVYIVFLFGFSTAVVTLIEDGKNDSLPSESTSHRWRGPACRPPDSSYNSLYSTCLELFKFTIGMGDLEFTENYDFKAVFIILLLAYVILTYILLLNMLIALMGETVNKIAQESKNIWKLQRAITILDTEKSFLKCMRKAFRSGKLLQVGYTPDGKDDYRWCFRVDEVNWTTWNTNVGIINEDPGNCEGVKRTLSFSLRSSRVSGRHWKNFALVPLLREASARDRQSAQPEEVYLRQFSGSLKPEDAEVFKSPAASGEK

The test addresses human TRPV1 (Homo sapiens (Human), UniProt Q8NER1). The conditions noted are these: read-out: IC50 (μM), antagonist effect against human TRPV1; CHO cells expressing human TrpV1; stimulated with 2.5 μM NADA (EC80); mean of at least three independent experiments.
Method: Chinese Hamster Ovary (CHO) cells transfected to express human TrpV1 receptor (which are herein referred to as CHO-huTrpV1 cells), were grown in F-12 Ham's Nutrient Mixture media (HyClone SH30026.01) supplemented with 10% Fetal Bovine Serum (Invitrogen #26140-079), 1% Antibiotic/antimycotic (Invitrogen #15240-062) and 500 ug/mL geneticin (ThermoFisher scientific #1031035). Cells were grown in T-75 flasks at 37° C. incubator with 5% CO2. The cells were passaged twice a week at a ratio of 1:10 to 1:20 to maintain steady growth. For experimentation, cells were harvested at approximately 80% confluency and plated onto 384 well black cell culture plates (cat #781091, Greinier Bio-One Inc.) at 15,000 cells per well in 20 μl media and grown overnight.
The loading dye was prepared following instruction of Calcium 6 assay kit (Molecular Probes, #R8190): 10 ml buffer from bottle B was added to 1 vial of bottle A (adapted to room temperature from −20° C.) and mixed well, then 2.5 mM of fresh prepared probenecid, was added and mixed well. 20 μl/well of loading dye was added on top of the cells, and incubated at 37° C. for 1 hour 30 min.
Assay buffer preparation: 1×HBSS, 2 mM HEPES, 0.1% BSA plus 2.5 mM freshly prepared probenecid (Invitrogen, #P36400). 25 μl/well assay buffer in 384 well clear plate (cat #782281, Greiner Bio-one) was dispensed with buffer distributor (Multidrop ComB1 from Thermo Scientific). The compounds were in 384 Echo plate (cat #LPL0200, Labcyte) and the starting concentration of compound was 10 mM, then 1 to 3 serial dilution in 100% DMSO, 8 ul/well). 125 nl compounds was transferred to the 384 well plate containing 25 μl/well buffer with Echo® 555 Liquid Handler (Labcyte), such that the compound concentration was 5 fold of final concentration. The plate was shook slowly at 40 rpm/min for 10 min to mix. 10 μl of 5 fold compound in the buffer was transferred to the cell plate (containing 20 μl cells and 20 μl dye) using Vertical Pipetting Station 384ST (Agilent Technologies). Six fold of final concentration of NADA (N-arachidonyl dopamine, cat #A8848, Sigma) in the assay buffer was prepared and 30 μl/well was distributed in 384 well clear plate.
After compounds were added to the cell plate with loading dye, within 10-15 minutes, cell plate and plate containing NADA was placed into the FLIPR (Fluorescent Imaging Plate Reader) instrument (Tetra System, Molecular device). The TRPV1 receptor was stimulated by application of 10 μl per well of NADA. For testing the effect of compounds for possible antagonism, 2.5 μM NADA was used at the EC80 concentration.
For determination of antagonist IC50 values (concentration of antagonist that inhibits response to NADA by 50%), at least 10 antagonist concentration were measured in triplicate. The response in the presence of the antagonist was calculated as a percentage of the control response to NADA and was plotted against the concentration of the antagonist. The IC50 was estimated by non-linear regression analysis to sigmoidal-logistic curves by HELIOS (PROD 2) system. These values were averaged (means and standard error of the mean) for at least three independent experiments.
As for `CC(C)(C)c1c(F)cc(O[C@H]2C[C@H](NCc3c(F)cc(CO)c4cnccc34)C2)cc1F` [Example 45, (5-((((1r,3r)-3-(4-(tert-butyl)-3,5-difluorophenoxy)cyclobutyl)amino)methyl)-6-fluoroisoquinolin-8-yl)methanol], the IC50 is 0.0188 µM.

Regarding `Fc1ccc2cnccc2c1CN[C@H]1C[C@H](Oc2ccc3c(c2)OC(F)(F)O3)C1` [Example 46, (1r,3r)-3-((2,2-difluorobenzo[d][1,3]dioxol-5-yl)oxy)-N-((6-fluoroisoquinolin-5-yl)methyl)cyclobutan-1-amine, HCl], the IC50 was found to be 0.0402 µM. Consider `OCc1cc(F)c(CN[C@H]2C[C@H](Oc3ccc4c(c3)OC(F)(F)O4)C2)c2ccncc12` [Example 47, (5-((((1r,3r)-3-((2,2-difluorobenzo[d][1,3]dioxol-5-yl)oxy)cyclobutyl)amino)methyl)-6-fluoroisoquinolin-8-yl)methanol, HCl], for which the IC50 came out at 0.0238 µM. For `COc1c(F)cc(O[C@H]2C[C@H](NCc3c(F)cc(CO)c4cnccc34)C2)cc1F` [Example 48, (5-((((1r,3r)-3-(3,5-difluoro-4-methoxyphenoxy)cyclobutyl)amino)methyl)-6-fluoroisoquinolin-8-yl)methanol] the value was 0.0345 µM. The figure for `COc1c(F)cc(O[C@H]2C[C@H](NCc3c(F)ccc4cnccc34)C2)cc1F` [Example 49, (1r,3r)-3-(3,5-difluoro-4-methoxyphenoxy)-N-((6-fluoroisoquinolin-5-yl)methyl)cyclobutan-1-amine] is 0.0163 µM.

As to `Fc1ccc(O[C@H]2C[C@H](NCc3c(F)ccc4cnccc34)C2)cc1OC(F)F` [Example 50, (1r,3r)-3-(3-(difluoromethoxy)-4-fluorophenoxy)-N-((6-fluoroisoquinolin-5-yl)methyl)cyclobutan-1-amine], the IC50 amounted to 0.0806 µM. For the compound `Fc1cc(O[C@H]2C[C@H](NCc3c(F)ccc4cnccc34)C2)ccc1OC(F)F` [Example 51, (1r,3r)-3-(4-(difluoromethoxy)-3-fluorophenoxy)-N-((6-fluoroisoquinolin-5-yl)methyl)cyclobutan-1-amine], the IC50 came out at 0.117 µM.

Turning to `Cc1c(F)cc(O[C@H]2C[C@H](NCc3c(F)ccc4cnccc34)C2)cc1F` [Example 52, (1r,3r)-3-(3,5-difluoro-4-methylphenoxy)-N-((6-fluoroisoquinolin-5-yl)methyl)cyclobutan-1-amine], the IC50 was found to be 0.0271 µM. The figure for `Cc1c(F)cc(O[C@H]2C[C@H](NCc3c(F)cc(CO)c4cnccc34)C2)cc1F` [Example 53, (5-((((1r,3r)-3-(3,5-difluoro-4-methylphenoxy)cyclobutyl)amino)methyl)-6-fluoroisoquinolin-8-yl)methanol] is 0.0769 µM; for `Cc1cc(O[C@H]2C[C@H](NCc3c(F)ccc4cnccc34)C2)cc(F)c1F` [Example 54, (1r,3r)-3-(3,4-difluoro-5-methylphenoxy)-N-((6-fluoroisoquinolin-5-yl)methyl)cyclobutan-1-amine] it is 0.0595 µM. `Fc1ccc(O[C@H]2C[C@H](NCc3c(F)ccc4cnccc34)C2)c(F)n1` [Example 55, (1r,3r)-3-((2,6-difluoropyridin-3-yl)oxy)-N-((6-fluoroisoquinolin-5-yl)methyl)cyclobutan-1-amine]: the 50% inhibitory concentration (IC50) was determined as 0.352 µM.

Take `Fc1ccc2cnccc2c1CN[C@H]1C[C@H](Oc2ccnc(C(F)(F)F)c2)C1` [Example 56, (1r,3r)-N-((6-fluoroisoquinolin-5-yl)methyl)-3-((2-(trifluoromethyl)pyridin-4-yl)oxy)cyclobutan-1-amine]: the IC50 was determined as 0.119 µM. For `Fc1cc(O[C@H]2C[C@H](NCc3c(F)ccc4cnccc34)C2)cnc1F` [Example 57, (1r,3r)-3-((5,6-difluoropyridin-3-yl)oxy)-N-((6-fluoroisoquinolin-5-yl)methyl)cyclobutan-1-amine], the IC50 worked out at 0.656 µM. As to `Fc1ccc2cnccc2c1CN[C@H]1C[C@H](Oc2ccc(C(F)(F)F)nc2F)C1` [Example 58, (1r,3r)-3-((2-fluoro-6-(trifluoromethyl)pyridin-3-yl)oxy)-N-((6-fluoroisoquinolin-5-yl)methyl)cyclobutan-1-amine], the IC50 came to 0.0829 µM.

Consider `N#Cc1cc(O[C@H]2C[C@H](NCc3c(F)ccc4cnccc34)C2)ccc1C(F)(F)F` [Example 59, 5-((1r,3r)-3-(((6-fluoroisoquinolin-5-yl)methyl)amino)cyclobutoxy)-2-(trifluoromethyl)benzonitrile], for which the IC50 is 0.0758 µM. For `CCOC(=O)c1cc(O[C@H]2C[C@H](NCc3c(F)ccc4cnccc34)C2)ccc1C(F)(F)F` [Example 60, ethyl 5-((1r,3r)-3-(((6-fluoroisoquinolin-5-yl)methyl)amino)cyclobutoxy)-2-(trifluoromethyl)benzoate] the value was 0.32 µM. For `N#Cc1c(O[C@H]2C[C@H](NCc3c(F)ccc4cnccc34)C2)cccc1C(F)(F)F` [Example 61, 2-((1r,3r)-3-(((6-fluoroisoquinolin-5-yl)methyl)amino)cyclobutoxy)-6-(trifluoromethyl)benzonitrile] the value was 0.194 µM. The figure for `Fc1ccc2cnccc2c1CN[C@H]1C[C@H](Oc2cnc(Cl)c(C(F)(F)F)c2)C1` [Example 62, (1r,3r)-3-((6-chloro-5-(trifluoromethyl)pyridin-3-yl)oxy)-N-((6-fluoroisoquinolin-5-yl)methyl)cyclobutan-1-amine] is 0.336 µM; for `Fc1ccc(NC2CC(NCc3c(F)ccc4cnccc34)C2)cc1C(F)(F)F` (stereo not drawn) [Example 63, N^1-(4-fluoro-3-(trifluoromethyl)phenyl)-N^3-((6-fluoroisoquinolin-5-yl)methyl)cyclobutane-1,3-diamine] it is 0.0986 µM. For `Fc1cc(CO[C@H]2C[C@H](NCc3c(F)ccc4cnccc34)C2)ccc1C(F)(F)F` [Example 64, (1r,3r)-3-((3-fluoro-4-(trifluoromethyl)benzyl)oxy)-N-((6-fluoroisoquinolin-5-yl)methyl)cyclobutan-1-amine], the IC50 is 0.163 µM. As for `O=C(Cc1cccc2cnccc12)N[C@H]1C[C@H](Oc2ccc(F)c(C(F)(F)F)c2)C1` [Example 65, N-((1r,3r)-3-(4-fluoro-3-(trifluoromethyl)phenoxy)cyclobutyl)-2-(isoquinolin-5-yl)acetamide], the IC50 came to 0.00098 µM. For `CS(=O)(=O)NCC(O)c1cc(F)c(CN[C@H]2C[C@H](Oc3ccc(F)c(C(F)(F)F)c3)C2)c2ccncc12` (stereo partly drawn) [Example 66, N-(2-(6-fluoro-5-((((1r,3r)-3-(4-fluoro-3-(trifluoromethyl)phenoxy)cyclobutyl)amino)methyl)isoquinolin-8-yl)-2-hydroxyethyl)methanesulfonamide] the value was 1.11 µM; for `NS(=O)(=O)NCC(O)c1cc(F)c(CN[C@H]2C[C@H](Oc3ccc(F)c(C(F)(F)F)c3)C2)c2ccncc12` (stereo partly drawn) [Example 67, N-(2-(6-fluoro-5-((((1r,3r)-3-(4-fluoro-3-(trifluoromethyl)phenoxy)cyclobutyl)amino)methyl)isoquinolin-8-yl)-2-hydroxyethyl) sulfuric diamide], 0.00377 µM; for `C[C@]1(NCc2c(F)ccc3cnccc23)C[C@@H](Oc2ccc(F)c(C(F)(F)F)c2)C1` [Example 68 cis, (1s,3s)-3-(4-fluoro-3-(trifluoromethyl)phenoxy)-N-((6-fluoroisoquinolin-5-yl)methyl)-1-methylcyclobutan-1-amine], 0.333 µM. For `C[C@]1(NCc2c(F)ccc3cnccc23)C[C@H](Oc2ccc(F)c(C(F)(F)F)c2)C1` [Example 68 trans, (1r,3r)-3-(4-fluoro-3-(trifluoromethyl)phenoxy)-N-((6-fluoroisoquinolin-5-yl)methyl)-1-methylcyclobutan-1-amine] the value was 0.0129 µM; for `Nc1cc2c(CC(=O)N[C@H]3C[C@H](Oc4ccc(F)c(C(F)(F)F)c4)C3)c(F)ccc2cn1` [Example 69, 2-(3-amino-6-fluoroisoquinolin-5-yl)-N-((1r,3r)-3-(4-fluoro-3-(trifluoromethyl)phenoxy)cyclobutyl)acetamide], 0.00015 µM; for `CC(=O)NCC(O)c1cc(F)c(CN[C@H]2C[C@H](Oc3ccc(F)c(C(F)(F)F)c3)C2)c2ccncc12` (stereo partly drawn) [Example 70, N-(2-(6-fluoro-5-((((1r,3r)-3-(4-fluoro-3-(trifluoromethyl)phenoxy)cyclobutyl)amino)methyl)isoquinolin-8-yl)-2-hydroxyethyl)acetamide], 0.402 µM. For `Fc1ccc2cnccc2c1CN[C@H]1C[C@H](Oc2cccc(C(F)(F)F)c2)C1` [Example 71, (1r,3r)-N-((6-fluoroisoquinolin-5-yl)methyl)-3-(3-(trifluoromethyl)phenoxy)cyclobutan-1-amine, HCl] the value was 0.0316 µM.

`O=C(O)C(O)c1cc(F)c(CN[C@H]2C[C@H](Oc3ccc(F)c(C(F)(F)F)c3)C2)c2ccncc12` (stereo partly drawn) [Example 72, 2-(6-fluoro-5-((((1r,3r)-3-(4-fluoro-3-(trifluoromethyl)phenoxy)cyclobutyl)amino)methyl)isoquinolin-8-yl)-2-hydroxyacetic acid]: the IC50 worked out at 0.0521 µM. The figure for `[O-][n+]1ccc2c(CN[C@H]3C[C@H](Oc4ccc(F)c(C(F)(F)F)c4)C3)c(F)ccc2c1` [Example 73, 6-fluoro-5-((((1r,3r)-3-(4-fluoro-3-(trifluoromethyl)phenoxy)cyclobutyl)amino)methyl)isoquinoline 2-oxide] is 0.193 µM; for `Nc1cc2c(CN[C@H]3C[C@H](Oc4ccc(C(F)(F)F)nc4)C3)cccc2cn1` [Example 74, 5-((((1r,3r)-3-((6-(trifluoromethyl)pyridin-3-yl)oxy)cyclobutyl)amino)methyl)isoquinolin-3-amine] it is 0.995 µM; for `N#Cc1ccc(O[C@H]2C[C@H](NCc3c(F)ccc4cnccc34)C2)c(F)n1` [Example 75, 6-fluoro-5-((1r,3r)-3-(((6-fluoroisoquinolin-5-yl)methyl)amino)cyclobutoxy)picolinonitrile, HCl] it is 0.269 µM. For `Fc1ccc2cnccc2c1CN[C@H]1C[C@H](Oc2ccc(C(F)(F)F)cc2)C1` [Example 76, (1r,3r)-N-((6-fluoroisoquinolin-5-yl)methyl)-3-(4-(trifluoromethyl)phenoxy)cyclobutan-1-amine, HCl] the value was 0.0277 µM.

By IC50 is commonly meant the concentration that gives 50% inhibition.
